Measurements reported in US20210138025A1, “CATIONIC PEPTIDES WITH IMMUNOMODULATORY AND/OR ANTI-BIOFILM ACTIVITIES” (priority 2018, published 2021).
In brackets after ≈: the same amount, converted by molar mass. Where two headings read alike, the source gives them in different places. No end group written: not given here.

What was measured:
[1] = test system: planktonic methicillin resistant S. aureus; experiment: microbe, parasite or virus in culture; format: cell-based, Staphylococcus aureus; conditions: Staphylococcus aureus
PBMCs = experiment: Cytotoxicity towards PBMCs, lactate dehydrogenase (LDH) release assay (Tables 6, 7); conditions: SPOT synthesized peptide ~25 μM, PBMCs from 3 human donors; Table 6
S. aureus (MRSA SAP0017) = format: cell-based, Staphylococcus aureus; conditions: SPOT synthesized control peptides, determined as in Table 5; Table 7
Description: Methods of assessment of anti-biofilm activity: MRSA S. aureus strain SAP0017 biofilm formation was initially analyzed using a static abiotic solid surface assay as described elsewhere (de la Fuente-Nunez et al., 2012) and shown graphically in FIG. 2. Dilutions (1/100) of overnight cultures were incubated in BM2 biofilm-adjusted medium [62 mM potassium phosphate buffer (pH 7), 7 mM (NH4)2SO4, 2 mM MgSO4, 10 μM FeSO4, 0.4% (wt/vol) glucose, 0.5% (wt/vol) Casamino Acids], or a nutrient rich medium such as Tryptic soy broth supplemented with 1% glucose, in polypropylene microtiter plates (Falcon, United States) in the absence (control) or presence of peptide. Peptide was added at time zero (prior to adding the diluted, overnight cultures) in varying concentrations, and the amount biofilm formation was recorded after 22-46 h incubation for most bacteria. To quantify biofilm growth, planktonic cells were removed and biofilm cells adhering to the side of the wells were stained with crystal violet, and absorbance at 595 nm was measured using a microtiter plate reader (Bio-Tek Instruments Inc., United States).

IL-1β = experiment: Suppression of LPS-induced IL-1β production in human PBMCs, ELISA (Tables 6, 7; FIGS. 6-9, 13); conditions: SPOT synthesized control peptides, determined as in Table 6; Table 7
MCP-1 = MCP-1 chemokine induction in human PBMCs, ELISA (Tables 6, 7; FIGS. 6-9, 13); format: cell-based; conditions: SPOT synthesized control peptides, determined as in Table 6; Table 7
Description: Venous blood (20 ml) from healthy volunteers was collected in Vacutainer® collection tubes containing sodium heparin as an anticoagulant (Becton Dickinson, Mississauga, ON) in accordance with UBC ethical approval and guidelines. Blood was diluted 1:1 with complete RPMI 1640 medium and separated by centrifugation over a Ficoll-Paque® Plus (Amersham Biosciences, Piscataway, N.J., USA) density gradient. White blood cells were isolated from the buffy coat, washed twice in PBS and then resuspended in RPMI 1640 complete medium (containing 10% fetal bovine serum), and the number of peripheral blood mononuclear cells (PBMC) was determined by Trypan blue exclusion. PBMCs (5×10^5) were seeded into 12-well tissue culture dishes (Falcon; Becton Dickinson) at 0.75-1×10^6 cells/ml at 37° C. in 5% CO2. The above conditions were chosen to mimic conditions for circulating blood monocytes entering tissues at the site of infection via extravasation.
Following incubation of the cells under various treatment regimens, the tissue culture supernatants were centrifuged at 1000×g for 5 min, then at 10,000×g for 2 min to obtain cell-free samples. Supernatants were aliquoted and then stored at −20° C. prior to assay for various chemokines by capture ELISA (eBioscience and BioSource International Inc., CA, USA respectively)

Row | Compound | MIC ([1]; read-out: MIC (μM) MHB) [µM] | MIC ([1]; read-out: MIC (μM) TSB with 1% Glucose) [µM] | % Toxicity (LDH Release) (PBMCs) [%] | % Biofilm Inhibition (S. aureus (MRSA SAP0017)) [%] | Fold Change in IL1-β relative to untreated LPS-stimulated cells (IL-1β) | MCPI production in PBMC (MCP-1) [pg/mL]
1 | CN[C@H](CC(C)C)C(=O)N[C@H]1C(=O)N[C@@H](CC(N)=O)C(=O)N[C@H]2C(=O)N[C@H]3C(=O)N[C@H](C(=O)N[C@H](C(=O)O)c4cc(O)cc(O)c4-c4cc3ccc4O)[C@H](O)c3ccc(c(Cl)c3)Oc3cc2cc(c3O[C@@H]2O[C@H](CO)[C@@H](O)[C@H](O)[C@H]2O[C@H]2C[C@](C)(N)[C@H](O)[C@H](C)O2)Oc2ccc(cc2Cl)[C@H]1O [Vancomycin] | 0.34 (≈ 0.493 µg/mL) | 0.68 (≈ 0.986 µg/mL) | – | – | – | –
2 | ALAIKVWIKILQ-NH2 [Imax-7, ALAIKVWIKILQ] | – | – | −1.1 | – | – | –
3 | C10 (QLRVAWKRAWWA) [Peptide C10] | – | – | – | 87 | 1.34 | 1313
4 | C11 (KAVKKGRRAIVV) [Peptide C11] | – | – | – | 106 | 1.12 | 197
5 | C12 (VIRAKAVWGWVK) [Peptide C12] | – | – | – | 104 | 1.01 | 498
6 | C13 (VARAVQKRWRKK) [Peptide C13] | – | – | – | 105 | 1.55 | 221
7 | C14 (VKAKRWKWAQLA) [Peptide C14] | – | – | – | 104 | 1.2 | 209
8 | C15 (KRVQAKAWRLQR) [Peptide C15] | – | – | – | 100 | 0.94 | 297
9 | C16 (KKIRQWGKAAAW) [Peptide C16] | – | – | – | 100 | 0.99 | 571
10 | C17 (QQLRWKRVAKAI) [Peptide C17] | – | – | – | 100 | 1.05 | 1677
11 | C18 (IQIQLVKRWAVI) [Peptide C18] | – | – | – | 100 | 0.92 | 1768
12 | C19 (RLIQWGWKIWAV) [Peptide C19] | – | – | – | 99 | 0.94 | 738
13 | C20 (KLLGILKQAIVV) [Peptide C20] | – | – | – | 100 | 0.78 | 106
14 | C21 (VLLRVGARIVVG) [Peptide C21] | – | – | – | 99 | 0.83 | 345
15 | C22 (LLIAGKWWKLAI) [Peptide C22] | – | – | – | 103 | 0.83 | 153
16 | C23 (LKKIIVQAVGLI) [Peptide C23] | – | – | – | 97 | 0.95 | 653
17 | C24 (LKILIAQAKKGL) [Peptide C24] | – | – | – | 101 | 1.4 | 1280
18 | C25 (IGQVVLVKIKIA) [Peptide C25] | – | – | – | 98 | 1.21 | 1762
19 | C26 (VWLAQKIGKWIW) [Peptide C26] | – | – | – | 100 | 1.41 | 1153
20 | C27 (KKAIKVVAIGRI) [Peptide C27] | – | – | – | 102 | 1.06 | 50
21 | C28 (WIIRWIKIWLKI) [Peptide C28] | – | – | – | 72 | 0.88 | 444
22 | C29 (VIAKIVLLRAGL) [Peptide C29] | – | – | – | 100 | 0.99 | 1809
23 | C30 (RGARVIRWKLRR) [Peptide C30] | – | – | – | 100 | 1.23 | 1153
24 | C31 (RAIIKQRWQRRW) [Peptide C31] | – | – | – | 103 | 1.09 | 1649
25 | C32 (QRWKKWKVLKLR) [Peptide C32] | – | – | – | 102 | 1.11 | 1614
26 | GLIIKIIKKRLW-NH2 [IBFmax-15, GLIIKIIKKRLW] | – | – | 25.1 | – | – | –
